The results in this text go back to ChEMBL document CHEMBL2163261, “Anti-HIV-1 activity of resveratrol derivatives and synergistic inhibition of HIV-1 by the combination of resveratrol and decitabine” (Bioorg Med Chem Lett, 2012).

The subject of series [1] is Human immunodeficiency virus 1. Put plainly: Antiviral activity against HIV1 infected in human U373-MAGI cells expressing CXCR4 assessed as inhibition of viral infection preincubated for 2 hrs prior to infection followed by compound wash out measured after 48 hrs by single round replication assay. To be noted: for EC50: Human immunodeficiency virus 1, U373-MAGI. It counts as functional, organism-based.

Series [2] in a line: Cytotoxicity against human U373-MAGI cells expressing CXCR4. To be noted: read-out: TC50 (the source's name). The series is classed as cell-based.
Series [3] in a line: Selectivity index, ratio of TC50 for human U373-MAGI cells to EC50 for human U373-MAGI cells infected with HIV1. The series is classed as toxicity, cell-based. To be noted: read-out: Selectivity Index.
Series [4] has as its system Human immunodeficiency virus 1. Put plainly: Antiviral activity against HIV1 infected in human U373-MAGI cells expressing CXCR4 assessed as infected host cells at 70 nM preincubated for 2 hrs prior to infection followed by compound wash out measured after 48 hrs by single round replication assay. It counts as functional.
The test system of series [5] is Human immunodeficiency virus 1. Description: Antiviral activity against HIV1 infected in human U373-MAGI cells expressing CXCR4 assessed as frequency of viral mutagenesis at 70 nM preincubated for 2 hrs prior to infection followed by compound wash out measured after 48 hrs by flow cytometry relative to control. It counts as functional.
The subject of series [6] is Human immunodeficiency virus 1. Description: Antiviral activity against HIV1 infected in human U373-MAGI cells expressing CXCR4 assessed as frequency of viral mutagenesis at 30 uM preincubated for 2 hrs prior to infection followed by compound wash out measured after 48 hrs by flow cytometry relative to control. The series is classed as functional. A general note: Flow cytometry measures light scatter and fluorescence of single cells or particles in a stream.

Series [7] relates to Human immunodeficiency virus 1. Description: Antiviral activity against HIV1 infected in human U373-MAGI cells expressing CXCR4 assessed as infected host cells at 30 uM preincubated for 2 hrs prior to infection followed by compound wash out measured after 48 hrs by single round replication assay. It counts as functional.
The test system of series [8] is Human immunodeficiency virus 1. Description: Antiviral activity against HIV1 infected in human U373-MAGI cells expressing CXCR4 assessed as infected host cells at 20 uM preincubated for 2 hrs prior to infection followed by compound wash out post infection measured after 48 hrs by single round replication assay. The series is classed as functional.
In series [9] the test system is Human immunodeficiency virus 1. Description: Antiviral activity against HIV1 infected in human U373-MAGI cells expressing CXCR4 assessed as frequency of viral mutagenesis at 20 uM preincubated for 2 hrs prior to infection followed by compound wash out measured after 48 hrs by flow cytometry relative to control. The series is classed as functional.
Series [10] deals with Human immunodeficiency virus 1. Description: Antiviral activity against HIV1 infected in human U373-MAGI cells expressing CXCR4 assessed as infected host cells at 6 uM preincubated for 2 hrs prior to infection followed by compound wash out measured after 48 hrs by single round replication assay. It counts as functional.
Series [11] deals with Human immunodeficiency virus 1. Description: Antiviral activity against HIV1 infected in human U373-MAGI cells expressing CXCR4 assessed as frequency of viral mutagenesis at 6 uM preincubated for 2 hrs prior to infection followed by compound wash out measured after 48 hrs by flow cytometry relative to control. The series is classed as functional.

For the compound `Oc1ccc(-c2ncc(-c3cc(O)cc(O)c3)cn2)cc1`, the EC50 (usually the concentration at which the effect is half-maximal) in series [1] is over 75 µM.

On to `Oc1ccc(-c2c(-c3cc(O)cc(O)c3)sc3ccccc23)cc1`, for which the CC50 in series [2] is 131 µM. Also, the selectivity ratio in [3] was 3.8. In addition, in series [1], the Activity result is “Dose-dependent effect” and the EC50 came out at 34.4 µM.

In the case of `Oc1ccc(-c2oc3ccccc3c2-c2cc(O)cc(O)c2)cc1`, the CC50 in [2] was determined as 108 µM. Further, the selectivity ratio in series [3] worked out at 1.5. Also, in series [1], the Activity entry was “Dose-dependent effect” and the EC50 turned out to be 65.1 µM.

Regarding `Nc1ncn([C@H]2C[C@H](O)[C@@H](CO)O2)c(=O)n1` [DECITABINE], the Activity in [4] is on record as 93%. Moreover, the Ratio in series [5] turned out to be 1.26.

`Oc1ccc(-c2sc3ccccc3c2-c2cc(O)cc(O)c2)cc1`: the CC50 in series [2] stood at 118 µM. Moreover, the selectivity ratio in series [3] was 2.6. Further, the Ratio in [6] worked out at 1.08. The Activity in [7] was 99%; in series [1], “Dose-dependent effect”. In addition, the EC50 in [1] stood at 45.1 µM.

As to `O=C(/C=C/c1ccc(O)cc1)c1cc(O)cc(O)c1`, the EC50 in [1] is over 75 µM.

Consider `Oc1ccc(/C=C/c2cc(O)cc(O)c2)cc1` [RESVERATROL], for which the CC50 in series [2] is over 300 µM. Also, the Activity in [8] is recorded as 91%. In [9], the Ratio came out at 1.08. For the same compound, in series [1], the Activity result was “Dose-dependent effect” and the EC50 was over 75 µM.

As for `Oc1ccc(-c2c(-c3cc(O)cc(O)c3)oc3ccccc23)cc1`, the CC50 in series [2] was 84.8 µM. The selectivity ratio in series [3] came out at 2.4. For the same compound, in series [1], the Activity result is “Dose-dependent effect” and the half-maximal effective concentration (EC50) is 35 µM.

As to `Oc1ccc(-c2ccc(-c3cc(O)cc(O)c3)cc2)cc1`, the CC50 in series [2] was 179 µM. The selectivity ratio in series [3] worked out at 20.3. Further, the Activity in series [10] is 96%; in series [1] it was “Dose-dependent effect”. For the same compound, the Ratio in [11] is listed as 1.1. Further, the EC50 in series [1] amounted to 8.8 µM.

On to `Oc1cc(O)cc(/C=C/c2ccc(O)c(O)c2)c1` [PICEATANNOL], for which the CC50 in [2] was over 400 µM. In addition, in series [3], the selectivity ratio was over 18.7. Also, the Activity in [10] came out at 88%. In addition, the Ratio in series [11] was found to be 1.16. Besides, in series [1], the Activity entry is “Dose-dependent effect” and the EC50 was determined as 21.4 µM.

For the compound `Oc1cc(O)cc(-c2ccc3cnccc3c2)c1`, the EC50 in series [1] was over 75 µM.

`Oc1ccc(-c2cc(-c3cc(O)cc(O)c3)on2)cc1`: the EC50 in series [1] is over 75 µM.

On to `Oc1ccc(-c2cnc(-c3cc(O)cc(O)c3)nc2)cc1`, for which, in series [1], the EC50 was over 75 µM.

Take `Oc1cc(O)cc(-c2ccc(-c3ccncc3)cc2)c1`: the EC50 in series [1] is over 100 µM.

Take `Oc1ccc(-n2cc(-c3cc(O)cc(O)c3)nn2)cc1`: the concentration for a half-maximal effect (EC50) in series [1] is over 75 µM.

With `Oc1cc(O)cc(-c2ccc3cc(O)ccc3c2)c1`, the EC50 in [1] is over 75 µM.

On to `Cn1c(-c2ccc(O)cc2)ccc1-c1cc(O)cc(O)c1`, for which the EC50 in series [1] was over 75 µM.
